Experimental data as given in the NIST ThermoML archive (doi:10.1021/acs.jced.6b00516).

Assay: wn = mass fraction of the nth substance listed
Settings: 102 kPa, Liquid, Vibrating tube method

CCCCC1CCCCC1 [butylcyclohexane] + CCCCCCCCCCCCCCCC
mass density [kg/m3]
Settings	w1 = 0.1002	w1 = 0.2	w1 = 0.3001	w1 = 0.3998	w1 = 0.4998	w1 = 0.6001	w1 = 0.7	w1 = 0.7999	w1 = 0.8998
293.15 K	775.85	778.23	780.67	783.16	785.72	788.34	791.01	793.72	796.48
303.15 K	768.9	771.24	773.65	776.08	778.59	781.15	783.74	786.38	789.06
313.15 K	761.94	764.25	766.6	768.99	771.43	773.92	776.44	779	781.6
323.15 K	754.99	757.24	759.55	761.87	764.25	766.67	769.12	771.6	774.12
333.15 K	748.02	750.22	752.47	754.73	757.04	759.39	761.76	764.16	766.6
343.15 K	741.1	743.2	745.35	747.5	749.8	752.1	754.35	756.6	759
353.15 K	734.1	736.1	738.3	740.3	742.5	744.7	746.9	749.1	751.4

CCCCC1CCCCC1 [butylcyclohexane] + Cc1ccccc1
mass density [kg/m3]
Settings	w1 = 0.1002	w1 = 0.2175	w1 = 0.3001	w1 = 0.3999	w1 = 0.5	w1 = 0.6001	w1 = 0.6995	w1 = 0.8001	w1 = 0.8996
293.15 K	858.58	849.42	843.23	835.97	829.25	822.67	816.44	810.43	804.75
303.15 K	849.47	840.53	834.5	827.42	820.88	814.48	808.43	802.58	797.08
313.15 K	840.29	831.58	825.72	818.82	812.46	806.25	800.37	794.7	789.37
323.15 K	831.04	822.57	816.86	810.17	803.99	797.96	792.27	786.78	781.62
333.15 K	821.72	813.48	807.94	801.44	795.45	789.62	784.11	778.81	773.83
343.15 K	812.2	804.3	798.8	792.6	786.8	781.3	775.9	770.7	765.9
353.15 K	802.7	795.1	789.7	783.7	778.1	772.8	767.5	762.6	758
